Molecules are shown by their SMILES. ≈ marks a conversion by molar mass, not a printed value. Where two headings read alike, the source gives them in different places. Where only a bound is given, the exact number is not on record here.

Assay [1] concerns Staphylococcus aureus X1.1. Description: MIC, standard agar-dilution assay, Staphylococcus aureus X1.1. In kind it is cell-based.
Assay [2] concerns Staphylococcus aureus V41. Put plainly: MIC, standard agar-dilution assay, Staphylococcus aureus V41. In kind it is cell-based.
In assay [3] the test system is Staphylococcus aureus X400. Description: MIC, standard agar-dilution assay, Staphylococcus aureus X400. In kind it is cell-based.
Assay [4] deals with Staphylococcus aureus S13E. Description: MIC, standard agar-dilution assay, Staphylococcus aureus S13E. In kind it is cell-based.
Assay [5] deals with Staphylococcus epidermidis EPI1. Description: MIC, standard agar-dilution assay, Staphylococcus epidermidis EPI1. In kind it is cell-based.
For assay [6], the system named is Staphylococcus epidermidis EPI2. Description: MIC, standard agar-dilution assay, Staphylococcus epidermidis EPI2. The assay is classed as cell-based.
The subject of assay [7] is Streptococcus pyogenes C203. Put plainly: MIC, standard agar-dilution assay, Streptococcus pyogenes C203. In kind it is cell-based.
In assay [8] the test system is Streptococcus pneumoniae Park I. Put plainly: microbe, parasite or virus in culture. In kind it is cell-based. The settings on record: Streptococcus pneumoniae Park I, agar dilution. In general terms: Agar dilution tests growth on a series of plates holding different concentrations.
Assay [9] deals with Streptococcus Group D X66. Put plainly: MIC, standard agar-dilution assay, Streptococcus Group D X66. The settings on record: Streptococcus Group D X66, agar dilution. In kind it is cell-based.
In assay [10] the test system is Streptococcus Group 9960. Description: MIC, standard agar-dilution assay, Streptococcus Group 9960. The assay is classed as cell-based. The settings on record: Streptococcus Group 9960, agar dilution.
The test system of assay [11] is Haemophilus influenzae Holt. Description: MIC, standard agar-dilution assay, Haemophilus influenzae Holt. The assay is classed as cell-based. The conditions noted are these: Haemophilus influenzae Holt, ampicillin-sensitive strain.
The test system of assay [12] is Haemophilus influenzae R252. Put plainly: MIC, standard agar-dilution assay, Haemophilus influenzae R252. The assay is classed as cell-based. The conditions noted are these: Haemophilus influenzae R252, ampicillin-resistant strain.
Assay [13] has as its system Staphylococcus aureus. Put plainly: MIC, broth-dilution microtiter test, Staphylococcus aureus. In kind it is cell-based. The source says: (§1) The MIC's in Table X were obtained using conventional broth-dilution microtiter tests.
For assay [14], the system named is Streptococcus bovis 80. Put plainly: MIC, broth-dilution microtiter test, Streptococcus bovis 80. The assay is classed as cell-based.
Description: as §1

Assay [15] has as its system Pasteurella multocida 17E. Put plainly: MIC, broth-dilution microtiter test, Pasteurella multocida 17E. The assay is classed as cell-based.
Description: as §1

The subject of assay [16] is Pasteurella multocida 60A. Put plainly: MIC, broth-dilution microtiter test, Pasteurella multocida 60A. In kind it is cell-based. The conditions noted are these: Pasteurella multocida 60A, avian isolate, broth-dilution microtiter.
Description: as §1

Assay [17] deals with Pasteurella hemolytica 22C. Description: MIC, broth-dilution microtiter test, Pasteurella hemolytica 22C. In kind it is cell-based. The conditions noted are these: Pasteurella hemolytica 22C, broth-dilution microtiter.
Description: as §1

The test system of assay [18] is Mycoplasma gallisepticum. Put plainly: MIC, broth-dilution microtiter test, Mycoplasma gallisepticum. The assay is classed as cell-based.
Description: as §1

For assay [19], the system named is Mycoplasma synoviae. Description: MIC, broth-dilution microtiter test, Mycoplasma synoviae. The assay is classed as cell-based.
Description: as §1

Assay [20] concerns Mycoplasma hyorhinis. Put plainly: MIC, broth-dilution microtiter test, Mycoplasma hyorhinis. In kind it is cell-based.
Description: as §1

The subject of assay [21] is Streptococcus pyogenes C203. Description: In vivo protection of mice experimentally infected with S. pyogenes C203. The settings on record: mice, doses given 1 and 4 hours post-infection. Here is the method:
The C-20 modified derivatives of this invention have shown in vivo antimicrobial activity against experimentally-induced infections in laboratory animals. When two doses of test compound were administered to mice experimentally infected with S. pyogenes C203, the activity observed was measured as an ED50 value [effective dose in mg/kg to protect 50% of the test animals: see Warren Wick, et al., J. Bacteriol. 81, 233-235 (1961)].

Assay [22] concerns Mycoplasma hyopneumoniae. Put plainly: MIC, broth-dilution microtiter test, Mycoplasma hyopneumoniae. In kind it is cell-based. The conditions noted are these: Mycoplasma hyopneumoniae; broth-dilution microtiter.
Description: as §1

[23] abbreviates: Staphylococcus aureus X1.1, agar dilution.
The mark [24] stands for this setting: Staphylococcus aureus V41, penicillin-resistant strain, agar dilution.
[25] abbreviates: Staphylococcus aureus X400, methicillin-resistant strain, agar dilution.
[26] abbreviates: Staphylococcus aureus S13E, agar dilution.
Where [27] appears, read: Staphylococcus epidermidis EPI1, agar dilution.
Setting [28] is: Streptococcus pyogenes C203, agar dilution.
Setting [29] is: Streptococcus bovis 80, broth-dilution microtiter.
Setting [30] is: Pasteurella multocida 17E, bovine isolate, broth-dilution microtiter.
Where [31] appears, read: Mycoplasma gallisepticum, broth-dilution microtiter.
The mark [32] stands for this setting: Mycoplasma hyorhinis, broth-dilution microtiter.

As a reminder, the ED50 is the dose at which the effect has come halfway, by size or by number of responders. With `CCC1OC(=O)CC(O)C(C)C(OC2OC(C)C(OC3CC(C)(O)C(O)C(C)O3)C(N(C)C)C2O)C(C)CC(C)C(=O)C=CC(C)=CC1COC1OC(C)C(O)C(O)C1OC` (stereo not shown) [Compound 54, 20-Deformylmacrocin], the MIC in assay [1] (Staphylococcus aureus, X1.1) amounted to 2 µg/mL (≈ 2.29 µM); in assay [2] (Staphylococcus aureus, V41), 1 µg/mL (≈ 1.14 µM); in assay [3] (Staphylococcus aureus, X400), 2 µg/mL (≈ 2.29 µM); in assay [4] (Staphylococcus aureus, S13E) it was 2 µg/mL (≈ 2.29 µM); in assay [5] (Staphylococcus epidermidis, EPI1) it was 2 µg/mL (≈ 2.29 µM); in assay [6] (Staphylococcus epidermidis, EPI2) it was 2 µg/mL (≈ 2.29 µM). The MIC in assay [7] (Streptococcus pyogenes, C203) was 2 µg/mL (≈ 2.29 µM); in assay [8] (read-out: MIC), 64 µg/mL (≈ 73.2 µM); in assay [9] (read-out: MIC) it was 128 µg/mL (≈ 146 µM); in [10] (GROUP9960, read-out: MIC) it was 28 µg/mL (≈ 32 µM); in assay [11] (read-out: MIC), above 128 µg/mL; in assay [12] (read-out: MIC) it was above 128 µg/mL. The MIC in assay [13] was 3.12 µg/mL (≈ 3.57 µM); in assay [14] (Streptococcus equinus, 80) it was 6.25 µg/mL (≈ 7.15 µM); in assay [15] (Pasteurella multocida, 17E), above 50 µg/mL; in assay [16] (read-out: MIC), above 50 µg/mL; in assay [17] (read-out: MIC), above 50 µg/mL; in assay [18] (Mycoplasmoides gallisepticum), 0.78 µg/mL (≈ 0.892 µM). Moreover, the MIC in assay [19] (Mycoplasmopsis synoviae) was found to be 1.56 µg/mL (≈ 1.78 µM); in [20] (Mycoplasma), 25 µg/mL (≈ 28.6 µM). Besides, the median effective dose (ED50) in [21] (Streptococcus pyogenes, C203, oral, read-out: ED50, Oral) is 31 mg/kg.

On to `CCC(=O)OC1C(OC2C(CCN3C(=O)c4ccccc4C3=O)CC(C)C(=O)C=CC(C)=CC(COC3OC(C)C(O)C(OC)C3OC)C(CC)OC(=O)CC(O)C2C)OC(C)C(O)C1N(C)C` (stereo not shown) [Compound 65, 20-DH-DO-20-N-Phthalimido-2'-O-propionyldesmycosin], for which the MIC in assay [1] (setting [23]) was determined as 0.5 µg/mL (≈ 0.521 µM); in assay [2] (setting [24]), 0.5 µg/mL (≈ 0.521 µM); in assay [3] (setting [25]), 0.5 µg/mL (≈ 0.521 µM); in assay [4] (setting [26]), 0.5 µg/mL (≈ 0.521 µM); in assay [5] (setting [27]) it was 0.25 µg/mL (≈ 0.261 µM); in [7] (setting [28]), 0.5 µg/mL (≈ 0.521 µM). Further, the MIC in [8] worked out at 1 µg/mL (≈ 1.04 µM); in assay [9] it was 8 µg/mL (≈ 8.34 µM); in assay [10] it was 8 µg/mL (≈ 8.34 µM); in assay [11] (agar dilution), 64 µg/mL (≈ 66.7 µM); in [12] (agar dilution), 32 µg/mL (≈ 33.4 µM); in assay [13] (broth-dilution microtiter), 1.56 µg/mL (≈ 1.63 µM). Also, the MIC is 6.25 µg/mL (≈ 6.52 µM) in assay [14] (setting [29]); 25 µg/mL (≈ 26.1 µM) in assay [15] (setting [30]); 12.5 µg/mL (≈ 13 µM) in assay [16]; 25 µg/mL (≈ 26.1 µM) in assay [17]; below 0.05 µg/mL in assay [18] (setting [31]); “-- (Not active at 50 mcg/ml, the highest level tested)” in assay [20] (setting [32]). For the same compound, in assay [22], the MIC came to 12.5 µg/mL (≈ 13 µM). Also, the “ED50, Oral” value in assay [21] (oral) is given as 20 mg/kg × 2. Also, the “ED50, Subcutaneous” value in assay [21] turned out to be 1.7 mg/kg × 2.

As to `CCC1OC(=O)CC(O)C(C)C(OC2OC(C)C(O)C(N(C)C)C2O)C(CCOc2ncnc3ccccc23)CC(C)C(=O)C=CC(C)=CC1COC1OC(C)C(O)C(OC)C1OC` (stereo not shown) [Compound 51, 20-DH-20-O-(Quinazolin-4-yl)desmycosin], the MIC in [1] (setting [23]) was 0.25 µg/mL (≈ 0.277 µM); in [2] (setting [24]), 0.25 µg/mL (≈ 0.277 µM); in [3] (setting [25]), 0.5 µg/mL (≈ 0.554 µM); in [4] (setting [26]), 0.25 µg/mL (≈ 0.277 µM); in [5] (setting [27]) it was 0.25 µg/mL (≈ 0.277 µM); in assay [6] (Staphylococcus epidermidis EPI2, agar dilution), 0.12 µg/mL (≈ 0.133 µM). Besides, the MIC came to 0.5 µg/mL (≈ 0.554 µM) in assay [7] (setting [28]); 0.5 µg/mL (≈ 0.554 µM) in [8]; 4 µg/mL (≈ 4.43 µM) in assay [9]; 4 µg/mL (≈ 4.43 µM) in assay [10]; 16 µg/mL (≈ 17.7 µM) in assay [11] (agar dilution); 32 µg/mL (≈ 35.5 µM) in assay [12] (agar dilution). The MIC was 0.78 µg/mL (≈ 0.865 µM) in assay [13] (broth-dilution microtiter); 0.78 µg/mL (≈ 0.865 µM) in [14] (setting [29]); 12.5 µg/mL (≈ 13.9 µM) in [15] (setting [30]); 12.5 µg/mL (≈ 13.9 µM) in assay [16]; “-- (Not active at 50 mcg/ml, the highest level tested)” in assay [17]; at most 0.048 µg/mL in [18] (setting [31]). The MIC in assay [19] (Mycoplasma synoviae, broth-dilution microtiter) is 0.39 µg/mL (≈ 0.432 µM); in assay [20] (setting [32]), 12.5 µg/mL (≈ 13.9 µM). Further, the “ED50, Oral” value in assay [21] (oral) is on record as above 50 mg/kg × 2. Further, in assay [21], the “ED50, Subcutaneous” value amounted to 5.4 mg/kg × 2.

The record behind these values is patent US4443436A, “C-20-Modified macrolide derivatives of the macrolide antibiotics tylosin, desmycosin, macrocin, and lactenocin” (Eli Lilly and Company, priority 1982, dated 1984).
